Key:
Cytochrome P450 2B6 [1] = biological target: T1, Cytochrome P450 2B6 (Homo sapiens, UniProt P20813); experiment: (§1) Activity of human recombinant CYP2B6 expressed in microsomes isolated from human AHH-1 cells assessed as enzyme-mediated 3-(2,4-dimethylphenylthio)-4-(piperazin-1-yl)phenol formation at 8 to 50 uM after 120 mins by HPLC/MS-MS analysis in presence of NADPH regenerating system with NADP+; type: ADME, cell-free; settings: 2 h
T1 sequence (P20813 whole entry): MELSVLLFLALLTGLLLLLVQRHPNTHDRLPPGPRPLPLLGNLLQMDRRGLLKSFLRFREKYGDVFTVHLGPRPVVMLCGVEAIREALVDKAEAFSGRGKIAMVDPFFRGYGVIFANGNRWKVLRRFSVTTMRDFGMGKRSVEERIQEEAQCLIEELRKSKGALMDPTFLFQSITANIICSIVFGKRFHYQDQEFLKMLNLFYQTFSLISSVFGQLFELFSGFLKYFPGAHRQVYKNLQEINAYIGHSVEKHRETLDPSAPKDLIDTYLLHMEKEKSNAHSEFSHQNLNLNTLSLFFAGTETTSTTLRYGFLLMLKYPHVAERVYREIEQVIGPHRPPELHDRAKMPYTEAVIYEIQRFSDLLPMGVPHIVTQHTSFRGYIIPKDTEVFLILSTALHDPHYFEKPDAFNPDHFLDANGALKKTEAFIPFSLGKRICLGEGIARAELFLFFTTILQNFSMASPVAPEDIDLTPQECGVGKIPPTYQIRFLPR

Liver microsome [2] = experiment: Drug metabolism in pooled human liver microsomes assessed as formation of 1-(2-(2,4-dimethylphenylsulfinyl)phenyl)piperazine at 100 uM after 30 to 180 mins by HPLC/MS-MS analysis in presence of NADPH regenerating system with NADP+; type: ADME
Cytochrome P450 2C9 [3] = biological target: T2, Cytochrome P450 2C9 (Homo sapiens, UniProt P11712); experiment: Activity of human recombinant CYP2C9 expressed in microsomes isolated from human AHH-1 cells assessed as enzyme-mediated 4-(2-(2,4-dimethylphenylthio)phenyl)piperazin-1-ol formation at 8 to 50 uM after 120 mins by HPLC/MS-MS analysis in presence of NADPH regenerating system with NADP+; type: ADME, cell-free; settings: 2 h
Cytochrome P450 1A2 = biological target: T3, Cytochrome P450 1A2 (Homo sapiens, UniProt P05177); experiment: Activity of human recombinant CYP1A2 expressed in microsomes isolated from human AHH-1 cells assessed as enzyme-mediated 3-(2,4-dimethylphenylthio)-4-(piperazin-1-yl)phenol formation at 8 to 50 uM after 120 mins by HPLC/MS-MS analysis in presence of NADPH regenerating system with NADP+; type: ADME, cell-free; settings: 2 h
T3 sequence (P05177 whole entry): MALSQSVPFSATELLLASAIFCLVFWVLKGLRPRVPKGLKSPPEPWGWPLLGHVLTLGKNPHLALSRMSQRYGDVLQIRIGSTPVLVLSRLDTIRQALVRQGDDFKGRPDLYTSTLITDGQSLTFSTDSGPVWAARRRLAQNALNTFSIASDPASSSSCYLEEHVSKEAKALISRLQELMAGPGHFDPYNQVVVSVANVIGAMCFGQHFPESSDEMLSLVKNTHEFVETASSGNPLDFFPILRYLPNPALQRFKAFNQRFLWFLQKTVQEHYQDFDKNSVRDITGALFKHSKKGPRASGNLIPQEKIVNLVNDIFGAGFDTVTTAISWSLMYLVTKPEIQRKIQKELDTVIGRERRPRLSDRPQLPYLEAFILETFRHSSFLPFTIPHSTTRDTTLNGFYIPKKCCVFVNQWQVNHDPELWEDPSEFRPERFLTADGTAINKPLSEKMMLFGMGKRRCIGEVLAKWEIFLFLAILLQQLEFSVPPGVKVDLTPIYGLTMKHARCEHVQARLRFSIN

Liver microsome [4] = experiment: Drug metabolism in pooled human liver microsomes assessed as formation of 4-(2-(2,4-dimethylphenylthio)phenyl)piperazin-1-ol at 100 uM after 30 to 180 mins by HPLC/MS-MS analysis in presence of NADPH regenerating system with NADP+; type: ADME
Liver microsome [5] = experiment: Drug metabolism in pooled human liver microsomes at 100 uM after 30 to 180 mins by HPLC/MS-MS analysis in absence of NADPH regenerating system with NADP+; type: ADME
Liver microsome [6] = experiment: Drug metabolism in phenotyped human liver microsomes assessed as formation of 1-(2-(2,4-dimethylphenylsulfinyl)phenyl)piperazine at 8 to 50 uM after 60 mins by HPLC/MS-MS analysis in presence of NADPH regenerating system with NADP+; type: ADME; settings: 1 h
Cytochrome P450 2B6 [7] = biological target: T1, Cytochrome P450 2B6; experiment: Activity of human recombinant CYP2B6 expressed in microsomes isolated from human AHH-1 cells assessed as enzyme-mediated 1-(2-(2,4-dimethylphenylsulfinyl)phenyl)piperazine formation at 8 to 50 uM after 120 mins by HPLC/MS-MS analysis in presence of NADPH regenerating system with NADP+; type: ADME, cell-free; settings: 2 h
[8] = biological target: T4, Flavin-containing monooxygenase 3 (Homo sapiens, UniProt P31513); experiment: as §1, with “FMO3” for “CYP2B6”, “baculovirus infected insect BTI-TN-5B1-4” for “human AHH-1”; type: ADME; settings: 2 h
T4 sequence (P31513 whole entry): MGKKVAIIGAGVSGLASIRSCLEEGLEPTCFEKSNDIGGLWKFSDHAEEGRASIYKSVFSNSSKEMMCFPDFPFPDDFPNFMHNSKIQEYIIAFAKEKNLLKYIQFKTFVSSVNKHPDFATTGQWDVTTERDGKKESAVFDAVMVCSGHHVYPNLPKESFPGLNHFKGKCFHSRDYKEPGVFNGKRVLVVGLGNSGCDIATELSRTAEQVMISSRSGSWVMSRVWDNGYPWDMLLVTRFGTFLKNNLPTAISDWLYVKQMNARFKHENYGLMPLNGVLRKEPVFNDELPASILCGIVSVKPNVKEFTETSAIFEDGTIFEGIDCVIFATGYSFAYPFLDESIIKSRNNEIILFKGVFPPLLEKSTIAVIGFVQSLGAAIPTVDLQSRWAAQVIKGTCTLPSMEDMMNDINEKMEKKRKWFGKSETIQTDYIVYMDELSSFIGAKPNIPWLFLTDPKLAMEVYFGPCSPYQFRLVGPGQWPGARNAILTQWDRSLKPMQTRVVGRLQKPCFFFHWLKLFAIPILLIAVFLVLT

Cytochrome P450 2C9 [9] = biological target: T2, Cytochrome P450 2C9; experiment: Activity of human recombinant CYP2C9 expressed in microsomes isolated from human AHH-1 cells assessed as enzyme-mediated (3-methyl-4-(2-(piperazin-1-yl)phenylthio)phenyl)methanol formation at 8 to 50 uM after 120 mins by HPLC/MS-MS analysis in presence of NADPH regenerating system with NADP+; type: ADME, cell-free; settings: 2 h
Cytochrome P450 2D6 = Cytochrome P450 2D6 (Homo sapiens, UniProt P10635); experiment: Activity of human recombinant CYP2D6 expressed in microsomes isolated from human AHH-1 cells assessed as enzyme-mediated 3-methyl-4-(2-(piperazin-1-yl)phenylthio)benzoic acid formation at 8 to 50 uM after 120 mins by HPLC/MS-MS analysis in presence of NADPH regenerating system with NADP+; type: ADME, cell-free; settings: 2 h
Cytochrome P450 2D6, sequence (P10635 whole entry): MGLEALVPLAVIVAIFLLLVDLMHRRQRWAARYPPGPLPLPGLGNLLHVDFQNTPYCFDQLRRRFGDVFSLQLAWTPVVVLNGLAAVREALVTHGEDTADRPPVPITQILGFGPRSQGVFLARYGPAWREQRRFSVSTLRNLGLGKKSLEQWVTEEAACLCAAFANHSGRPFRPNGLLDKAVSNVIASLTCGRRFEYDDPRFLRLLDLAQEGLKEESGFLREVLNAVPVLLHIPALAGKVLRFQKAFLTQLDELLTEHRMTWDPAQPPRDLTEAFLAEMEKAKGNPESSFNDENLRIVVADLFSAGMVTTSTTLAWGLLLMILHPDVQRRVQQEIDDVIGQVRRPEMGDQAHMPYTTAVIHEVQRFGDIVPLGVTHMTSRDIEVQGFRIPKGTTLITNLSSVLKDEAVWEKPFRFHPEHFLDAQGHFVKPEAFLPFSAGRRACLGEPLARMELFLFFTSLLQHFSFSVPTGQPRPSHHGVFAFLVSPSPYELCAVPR

T2 sequence (P11712 whole entry): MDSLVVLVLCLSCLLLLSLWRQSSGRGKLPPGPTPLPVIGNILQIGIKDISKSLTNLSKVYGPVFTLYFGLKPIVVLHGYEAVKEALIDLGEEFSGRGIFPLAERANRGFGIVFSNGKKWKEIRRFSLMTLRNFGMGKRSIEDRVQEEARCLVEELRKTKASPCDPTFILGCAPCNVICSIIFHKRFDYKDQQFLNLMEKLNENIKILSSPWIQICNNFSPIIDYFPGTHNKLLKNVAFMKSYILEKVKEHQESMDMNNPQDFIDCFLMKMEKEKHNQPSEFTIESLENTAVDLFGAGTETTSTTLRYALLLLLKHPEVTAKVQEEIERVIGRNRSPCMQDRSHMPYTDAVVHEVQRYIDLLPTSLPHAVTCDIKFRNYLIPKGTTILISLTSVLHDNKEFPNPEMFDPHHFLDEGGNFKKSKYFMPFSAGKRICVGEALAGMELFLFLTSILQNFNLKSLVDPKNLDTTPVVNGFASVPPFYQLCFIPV

Drug metabolism (Cytochrome P450 2B6 [1]): metabolite_not_detected
Drug metabolism (Liver microsome [2]): metabolite_detected
Drug metabolism (Cytochrome P450 2C9 [3]): metabolite_detected
Drug metabolism (Cytochrome P450 1A2): metabolite_not_detected
Drug metabolism (Liver microsome [4]): metabolite_detected
Drug metabolism (Liver microsome [5]): metabolite_not_detected
Drug metabolism (Liver microsome [6]): metabolite_detected
Drug metabolism (Cytochrome P450 2B6 [7]): metabolite_not_detected
Drug metabolism [8]: metabolite_not_detected
Drug metabolism (Cytochrome P450 2C9 [9]): metabolite_detected
Drug metabolism (Cytochrome P450 2D6): metabolite_detected
Compound: Br.Cc1ccc(Sc2ccccc2N2CCNCC2)c(C)c1 [VORTIOXETINE HYDROBROMIDE]
